The record followed here is PMC9613470, “Diverse MarR bacterial regulators of auxin catabolism in the plant microbiome” (Nature Microbiology, 2022).

In assay [1] the target is Variovorax paradoxus CL14 MarR_73 (Variovorax paradoxus, UniProt C5CSP2). Description: biochemical. In kind it is binding. Particulars: ITC, 25 °C, 20 mM HEPES pH 7.4, 50 mM NaCl, 0.5% DMSO, mean of two measurements ± standard error. The method, then:
(§1) The coding sequence for each gene can be found in Supplementary Table 10. MarR expression plasmids were synthesized as codon-optimized genes for E. coli expression by BioBasic in the pLIC-His N-term vector (pMCSG7) and transformed into E. coli BL21 (DE3) Gold cells for expression. […] At an OD600 of 0.8, protein expression was induced by the addition of 0.1 mM IPTG and incubation continued overnight. Cells were collected by centrifugation at 4,500 × g for 20 min at 4 °C in a Sorvall (model RC-3B) swinging bucket centrifuge. Cell pellets were resuspended in buffer A (20 mM potassium phosphate, pH 7.4, 50 mM imidazole, 500 mM NaCl), DNase, lysozyme and a Roche Complete EDTA-free protease inhibitor tablet. Resuspended cells were sonicated and clarified via centrifugation at 17,000 × g for 60 min in a Sorvall (model RC-5B) swinging bucket centrifuge. The lysate was applied to a nickel-nitrilotriacetic acid HP column (GE Healthcare) on an Aktaxpress Fast Performance Liquid Chromatography (FPLC) system (Amersham Bioscience) and washed with buffer A. Protein was eluted with buffer B (20 mM potassium phosphate, pH 7.4, 500 mM imidazole, 500 mM NaCl). Fractions containing the protein of interest were combined and passed over a HiLoadTM 16/60 SuperdexTM 200 gel filtration column. Proteins were eluted in S200 buffer (20 mM HEPES, pH 7.4, 300 mM NaCl). Fractions were combined and concentrated for long-term storage at −80 °C.
(§2) All ITC measurements were performed at 25 °C using an Auto-ITC200 microcalorimeter (MicroCal/GE Healthcare). The buffer employed was 20 mM HEPES, pH 7.4, 50 mM NaCl and 0.5% dimethly sulfoxide (DMSO) for protein/ligand binding and 20 mM HEPES, pH 7.4 and 300 mM NaCl for DNA/protein binding experiments. For ligand binding experiments, the calorimetry cell (volume […]) was loaded with MarR wild-type, mutant or homologue protein at a concentration of 50 μM. The syringe was loaded with a ligand concentration of 0.5 or 2 mM. […] A typical injection protocol included a single 0.2 μl first injection followed by 20 1.5 μl injections of the syringe sample into the calorimetry cell. The spacing between injections was kept at 180 s and the reference power at 8 μcal s^−1. […] Two independent ITC measurements were performed for each condition.

The target in assay [2] is Bradyrhizobium japonicum MarR_Bj2. Description: ITC IAA binding to MarR_Bj2. Particulars: 25 °C, IadR2 (MarR_50-like). The method, then:
as §1, with “Fractions were combined and concentrated for long-term storage at −80 °C.” left out

Assay [3] addresses Bradyrhizobium japonicum MarR_Bj1 (Bradyrhizobium japonicum, UniProt A0A0A3XYM8). The assay is described as follows: ITC IAA binding to MarR_Bj1. Particulars: 25 °C, IadR (MarR_73-like). The method, then:
as §1, with “Fractions were combined and concentrated for long-term storage at −80 °C.” left out

Assay [4] has as its target Acinetobacter baumannii MarR_Ab (Acinetobacter baumannii, UniProt A0ABX6CGA9). The assay is described as follows: ITC IAA binding to MarR_Ab. As to the method: as §1, with “Fractions were combined and concentrated for long-term storage at −80 °C.” left out
Assay [5] deals with Pseudomonas putida 1290 MarR_iacR (Pseudomonas putida, UniProt B0FXI7). The assay is described as follows: ITC IAA binding to MarR_iacR. Particulars: 25 °C, IacR. As to the method:
as §1, with “Fractions were combined and concentrated for long-term storage at −80 °C.” left out

In assay [6] the target is T1, Enterobacter soli LF7 MarR_Es (Enterobacter soli, UniProt A0AAW8H3I9, A146S).
T1 sequence (A0AAW8H3I9 1-157 A146S): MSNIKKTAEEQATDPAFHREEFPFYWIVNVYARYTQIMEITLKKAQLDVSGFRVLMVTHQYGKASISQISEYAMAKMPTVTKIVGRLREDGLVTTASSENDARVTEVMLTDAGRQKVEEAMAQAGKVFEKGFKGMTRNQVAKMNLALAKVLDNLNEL
The assay is described as follows: ITC IAA binding to MarR_Es. Conditions: 25 °C, IacR.
Procedure: All ITC measurements were performed at 25 °C using an Auto-ITC200 microcalorimeter (MicroCal/GE Healthcare). The buffer employed was 20 mM HEPES, pH 7.4, 50 mM NaCl and 0.5% dimethly sulfoxide (DMSO) for protein/ligand binding and 20 mM HEPES, pH 7.4 and 300 mM NaCl for DNA/protein binding experiments. For ligand binding experiments, the calorimetry cell (volume 200 ml) was loaded with MarR wild-type, mutant or homologue protein at a concentration of 50 μM. The syringe was loaded with a ligand concentration of 0.5 or 2 mM. […] A typical injection protocol included a single 0.2 μl first injection followed by 20 1.5 μl injections of the syringe sample into the calorimetry cell. The spacing between injections was kept at 180 s and the reference power at 8 μcal s^−1. The data were analysed using Origin for ITC version 7.0 software supplied by the manufacturer and fit well to a one-site binding model. Two independent ITC measurements were performed for each condition.

A further assay deals with MarR_73 H32A (Variovorax paradoxus, UniProt C5CSP2, H32A). The assay is described as follows: biochemical. As to the method:
as §1
(§3) MarR mutant proteins were created by site-directed mutagenesis using primers from Integrated DNA Technologies. […] The mutants were produced and purified using E. coli BL21 (DE3) Gold as described above.
as §2

The next assay addresses MarR_73 R46A (Variovorax paradoxus, UniProt C5CSP2, R46A). Description: biochemical. The method, then: as §1, §3, §2
The next assay deals with MarR_73 S28A (Variovorax paradoxus, UniProt C5CSP2, S28A). Description: biochemical. The method, then: as §1, §3, §2
The target of the next assay is MarR_73 S28A R46A (Variovorax paradoxus, UniProt C5CSP2, R46A/S28A). Conditions: ITC, 25 °C; mutant S28A R46A. The method, then: as §1, with “Fractions were combined and concentrated for long-term storage at −80 °C.” left out
A general note: ITC needs no label: the signal is the heat of the interaction.

The next assay deals with MarR_73 S28A H32A R46A. The assay is described as follows: ITC IAA binding to MarR_73 S28A H32A R46A mutant. On the set-up: species or system Variovorax paradoxus CL14. Particulars: 25 °C. The method, then:
as §1, with “Fractions were combined and concentrated for long-term storage at −80 °C.” left out

Several values for one entry are separate records, joined by “and”; a condition that tells them apart may be missing. Equal values may be shown once. Entries after “also recorded” stand apart in the source; their conditions may differ.

Chain of Variovorax paradoxus CL14 MarR_73 (C5CSP2 entry or part of it): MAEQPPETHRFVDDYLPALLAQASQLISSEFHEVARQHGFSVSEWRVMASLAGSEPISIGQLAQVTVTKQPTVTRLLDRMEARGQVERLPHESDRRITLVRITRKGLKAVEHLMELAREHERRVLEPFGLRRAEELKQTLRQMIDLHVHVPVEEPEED
Chain of MarR_73 S28A (C5CSP2 1-158, stated change not applied): as the sequence (C5CSP2 entry or part of it) above
Chain of MarR_73 H32A (C5CSP2 1-158, stated change not applied): as the sequence (C5CSP2 entry or part of it) above
Chain of MarR_73 R46A (C5CSP2 1-158, stated change not applied): as the sequence (C5CSP2 entry or part of it) above
Chain of Pseudomonas putida 1290 MarR_iacR (B0FXI7 whole entry): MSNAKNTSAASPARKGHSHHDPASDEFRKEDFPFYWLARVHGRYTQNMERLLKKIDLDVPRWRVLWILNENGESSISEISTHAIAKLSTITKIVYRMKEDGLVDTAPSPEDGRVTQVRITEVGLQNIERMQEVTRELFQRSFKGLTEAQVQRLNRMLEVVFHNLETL
Chain of Bradyrhizobium japonicum MarR_Bj1 (A0A0A3XYM8 entry or part of it): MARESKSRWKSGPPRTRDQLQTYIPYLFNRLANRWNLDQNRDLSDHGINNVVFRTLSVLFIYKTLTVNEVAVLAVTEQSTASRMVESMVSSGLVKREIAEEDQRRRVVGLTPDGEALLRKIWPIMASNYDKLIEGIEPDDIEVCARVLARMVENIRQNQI
Chain of MarR_73 S28A R46A (C5CSP2 1-158, stated change not applied): as the sequence (C5CSP2 entry or part of it) above

For the molecule `O=C(O)Cc1c[nH]c2ccccc12` [IAA, indole-3-acetic acid], the “N (ligand binding stoichiometry to the MarR monomer)” value was 0.732 ± 0.036 in [1] and 0.73 ± 0.04 in assay [1] (listed as Indole-3-Acetic Acid (IAA)). Besides, the Kd in assay [1] (KD) was 410 nM and 408 nM; in [4], 1290 ± 101 nM; in assay [5] (read-out: KD1), 4450 ± 196 nM; at MarR_73 H32A it was 3100 ± 100 nM; on MarR_73 R46A, 11000 ± 1000 nM; at MarR_73 S28A it was 2400 ± 100 nM. For the same molecule, the KD1 result in assay [2] is listed as “did not bind; also recorded: No Binding”. Besides, the N1 in assay [3] amounted to 1.001 ± 0.069; in assay [4] (ITC, 25 °C, IacR), 0.911 ± 0.011; in [5], 0.590± 0.032; in [6], 0.967 ± 0.006. Besides, the N at MarR_73 H32A (ITC, 25 °C, mutant H32A) was 0.28 ± 0.01; at MarR_73 R46A (ITC, 25 °C, mutant R46A), 1.1 ± 0.1; at MarR_73 S28A (ITC, 25 °C, mutant S28A), 0.52 ± 0.01; on MarR_73 S28A R46A, 1.2 ± 0.2. Further, the KD result on MarR_73 S28A H32A R46A is listed as “No Binding”.
